Data as given in patent publication US20060099173A1, “Topical skin care composition” (priority 2003, published 2006).
Like-named read-outs stand apart in the source and are kept apart here.

Assays:
[1] = in vivo
[2] = description of the substance; cited from earlier work
clinical = conditions: human, in vivo

Percutaneous absorption of unchanged drug into the systemic circulation [1]	Post-dose plasma concentrations [1]	Cmax ([1]; human) [ng/mL]	Cmax (clinical) [ng/mL]	Number of subjects with quantifiable plasma concentrations ([1]; human, 8 weeks)	Subjects with quantifiable plasma concentrations ([1]; human, 8 weeks) [%]	SMILES	Stability of the drug substance (light, air, moisture) [2]
minimal	undetectably low	–	–	–	–	CC1(C)O[C@@H]2C[C@H]3[C@@H]4C[C@H](F)C5=CC(=O)C=C[C@]5(C)[C@@]4(F)[C@@H](O)C[C@]3(C)[C@]2(C(=O)CO)O1 [fluocinolone acetonide, (6,11,16)-6,9-difluoro-11,21-dihydroxy-16,17-[(1-methylethylidene)bis(oxy)]-pregna-1,-4-diene-3,20-dione]	stable in light
minimal	–	2.0 to 4.99	2.01 to 5.34	–	–	CC1=C(/C=C/C(C)=C/C=C/C(C)=C/C(=O)O)C(C)(C)CCC1 [tretinoin, (all-E)-3,7-dimethyl-9-(2,6,6-trimethyl-l-cyclohexen-1-yl)-2,4,6,8-nonatetraenoic acid]	highly reactive to light and moisture
minimal	undetectably low	–	25.6 to 86.5	8	18	Oc1ccc(O)cc1 [hydroquinone, 1,4-benzenediol]	darken on exposure to air
